Measurements reported in patent US6525001B1, “Substituted pyrimidine and pyridine herbicides” (Mid-American Commercialization Corporation, priority 1997, dated 2003).

Assays:
Type in all cases: in vivo
Design in all cases: key: 0 is no effect; 10 is complete control
[1] = system: bamyardgrass (Echinochloa crus-galli); test: Test B flood test
Summary of the method: (§1)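 Plants were grown to the 2-leaf stage before treatment with test chemical, then held in a greenhouse for twelve to sixteen days. Injury was visually rated against untreated controls on a 0–10 scale, where 0 is no effect and 10 is complete control.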

[2] = system: duck salad (Heteranthera limosa); test: Test B flood test
Summary of the method: as §1

[3] = system: smallflower flatsedge (Cyperus difformis); test: Test B flood test
Summary of the method: as §1

rice (Oryza sativa) = test: Test B flood test
Summary of the method: as §1

soybean (Glycine max) = test: Test B pre-/postemergence
Summary of the method: (§2)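 Seeds were planted and sprayed preemergence, while plants at 2 to 18 cm (1- to 4-leaf stage) were sprayed postemergence at the same time, with test chemical in a non-phytotoxic solvent mixture containing surfactant. After twelve to sixteen days in a greenhouse, injury was rated visually against untreated controls on a 0–10 scale.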

[4] = system: blackgrass (Alopecurus myosuroides); test: Test B pre-/postemergence; conditions: for Blackgrass plant response rating: Preemergence
Summary of the method: as §2

wild oat (Avena fatua) = test: Test B pre-/postemergence
Summary of the method: as §2

[5] = system: broadleaf signalgrass (Brachiaria decumbens); test: Test B pre-/postemergence; conditions: for B. signalgrass plant response rating: Preemergence
Summary of the method: as §2

[6] = system: momingglory (Ipomoea hederacea); test: Test B pre-/postemergence
Summary of the method: as §2

[7] = system: giant foxtail (Setaria faberii); test: Test B pre-/postemergence
Summary of the method: as §2

[8] = system: crabgrass (Digitaria sanguinalis); test: Test B pre-/postemergence; conditions: for Crabgrass plant response rating: Preemergence
Summary of the method: as §2

[9] = system: cocklebur (Xanthium strumarium); test: Test B pre-/postemergence; conditions: for Cocklebur plant response rating: Preemergence
Summary of the method: as §2

[10] = system: velvetleaf (Abutilon theophrasti); test: Test B pre-/postemergence
Summary of the method: as §2

[11] = system: wheat (Triticum aestivum); test: Test B pre-/postemergence
Summary of the method: as §2

[12] = system: bedstraw (Galium aparine); test: Test B pre-/postemergence; conditions: for Bedstraw plant response rating: Preemergence
Summary of the method: as §2

[13] = system: sugar beet (Beta vulgaris); test: Test B pre-/postemergence
Summary of the method: as §2

[14] = system: purple nutsedge (Cyperus rotundus); test: Test B pre-/postemergence
Summary of the method: as §2

[15] = system: pigweed (Amaranthus retroflexus); test: Test B pre-/postemergence
Summary of the method: as §2

rape (Brassica napus) = test: Test B pre-/postemergence
Summary of the method: as §2

corn (Zea mays) = test: Test B pre-/postemergence; conditions: for Corn plant response rating: Preemergence
Summary of the method: as §2

[16] = Rate 62 g/ha, Postemergence (flood test)
[17] = Rate 125 g/ha, Postemergence, flood test
[18] = Rate 250 g/ha, Postemergence (flood test species)
[19] = Rate 125 g/ha, Postemergence section (flood test species)
[20] = Rate 250 g/ha, Postemergence (so in the source)

Cc1cnc(-c2ccc(C#N)cc2)nc1Cc1cccc(C#N)c1 [Compound 36]
9: Plant response rating, Sugarbeets ([13]; Rate 250 g/ha, Postemergence)
5: S. Flatsedge plant response rating [3, 19] | Rape plant response rating (rape (Brassica napus); Rate 125 g/ha, Postemergence) | Plant response rating, Rape (rape (Brassica napus); Rate 250 g/ha, Postemergence)
6: Plant response rating, S. Flatsedge [3, 18] | Plant response rating, Bedstraw ([12]; Rate 62 g/ha, Postemergence)
0: Plant response rating, Barnyardgrass [1, 16] | Plant response rating, Barnyardgrass [1, 17] | Plant response rating, Barnyardgrass [1, 18] | Plant response rating, Ducksalad [2, 16] | Plant response rating, Ducksalad [2, 17] | Plant response rating, Rice (rice (Oryza sativa); [16]) | Rice plant response rating (rice (Oryza sativa); [19]) | Plant response rating, Rice (rice (Oryza sativa); [18]) | Soybean plant response rating (soybean (Glycine max); Rate 62 g/ha, Preemergence) | Plant response rating, Soybean (soybean (Glycine max); Rate 125 g/ha, Preemergence) | Plant response rating, Blackgrass ([4]; Rate 62 g/ha, Postemergence) | Blackgrass plant response rating ([4]; Rate 62 g/ha) | Plant response rating, Blackgrass ([4]; Rate 125 g/ha, Postemergence) | Blackgrass plant response rating ([4]; Rate 125 g/ha) | Wild oats plant response rating (wild oat (Avena fatua); Rate 62 g/ha, Postemergence) | Wild oats plant response rating (wild oat (Avena fatua); Rate 62 g/ha, Preemergence) | Plant response rating, Wild oats (wild oat (Avena fatua); Rate 125 g/ha, Preemergence) | Plant response rating, Wild oats (wild oat (Avena fatua); [20]) | B. signalgrass plant response rating ([5]; Rate 62 g/ha) | B. signalgrass plant response rating ([5]; Rate 125 g/ha) | Plant response rating, B. signalgrass ([5]; Rate 250 g/ha, Postemergence as printed in head r139 (second section for compounds 26-50)) | Morningglory plant response rating ([6]; Rate 62 g/ha, Preemergence) | Morningglory plant response rating ([6]; Rate 125 g/ha, Preemergence) | Plant response rating, Morningglory [6, 20] | Plant response rating, Giant foxtail ([7]; Rate 62 g/ha, Postemergence) | Giant foxtail plant response rating ([7]; Rate 62 g/ha, Preemergence) | Giant foxtail plant response rating ([7]; Rate 125 g/ha, Preemergence) | Plant response rating, Giant foxtail [7, 20] | Plant response rating, Crabgrass ([8]; Rate 62 g/ha, Postemergence) | Crabgrass plant response rating ([8]; Rate 62 g/ha) | Crabgrass plant response rating ([8]; Rate 125 g/ha) | Plant response rating, Crabgrass [8, 20] | Cocklebur plant response rating ([9]; Rate 62 g/ha) | Cocklebur plant response rating ([9]; Rate 125 g/ha) | Plant response rating, Cocklebur [9, 20] | Velvetleaf plant response rating ([10]; Rate 62 g/ha, Preemergence) | Plant response rating, Velvetleaf ([10]; Rate 125 g/ha, Preemergence) | Wheat plant response rating ([11]; Rate 62 g/ha, Postemergence) | Wheat plant response rating ([11]; Rate 62 g/ha, Preemergence) | Plant response rating, Wheat ([11]; Rate 125 g/ha, Preemergence) | Plant response rating, Wheat [11, 20] | Bedstraw plant response rating ([12]; Rate 62 g/ha) | Bedstraw plant response rating ([12]; Rate 125 g/ha) | Plant response rating, Bedstraw [12, 20] | Sugarbeets plant response rating ([13]; Rate 62 g/ha, Preemergence) | Plant response rating, Sugarbeets ([13]; Rate 125 g/ha, Preemergence) | Plant response rating, Nutsedge ([14]; Rate 62 g/ha, Postemergence) | Nutsedge plant response rating ([14]; Rate 62 g/ha, Preemergence) | Nutsedge plant response rating ([14]; Rate 125 g/ha, Postemergence) | Nutsedge plant response rating ([14]; Rate 125 g/ha, Preemergence) | Plant response rating, Nutsedge ([14]; Rate 250 g/ha, Postemergence) | Plant response rating, Nutsedge [14, 20] | Plant response rating, Redroot pigweed ([15]; Rate 62 g/ha, Postemergence) | Redroot pigweed plant response rating ([15]; Rate 62 g/ha, Preemergence) | Redroot pigweed plant response rating ([15]; Rate 125 g/ha, Preemergence) | Rape plant response rating (rape (Brassica napus); Rate 62 g/ha, Preemergence) | Rape plant response rating (rape (Brassica napus); Rate 125 g/ha, Preemergence) | Corn plant response rating (corn (Zea mays); Rate 62 g/ha) | Corn plant response rating (corn (Zea mays); Rate 125 g/ha) | Plant response rating, Corn (corn (Zea mays); [20])
2: Plant response rating, S. Flatsedge [3, 16] | Plant response rating, Soybean (soybean (Glycine max); Rate 250 g/ha, Postemergence) | Plant response rating, Blackgrass ([4]; Rate 250 g/ha, Postemergence) | Plant response rating, Wild oats (wild oat (Avena fatua); Rate 250 g/ha, Postemergence) | Morningglory plant response rating ([6]; Rate 125 g/ha, Postemergence) | Plant response rating, Morningglory ([6]; Rate 250 g/ha, Postemergence) | Plant response rating, Cocklebur ([9]; Rate 125 g/ha, Postemergence) | Plant response rating, Wheat ([11]; Rate 250 g/ha, Postemergence) | Plant response rating, Sugarbeets [13, 20]
7: Plant response rating, Bedstraw ([12]; Rate 125 g/ha, Postemergence) | Plant response rating, Bedstraw ([12]; Rate 250 g/ha, Postemergence)
3: Plant response rating, Cocklebur ([9]; Rate 250 g/ha, Postemergence)
4: Redroot pigweed plant response rating ([15]; Rate 125 g/ha, Postemergence) | Plant response rating, Rape (rape (Brassica napus); Rate 62 g/ha, Postemergence)
8: Plant response rating, Sugarbeets ([13]; Rate 62 g/ha, Postemergence) | Sugarbeets plant response rating ([13]; Rate 125 g/ha, Postemergence) | Plant response rating, Redroot pigweed ([15]; Rate 250 g/ha, Postemergence) | Plant response rating, Redroot pigweed [15, 20]
1: Plant response rating, Ducksalad [2, 18] | Plant response rating, Soybean (soybean (Glycine max); Rate 62 g/ha, Postemergence) | Soybean plant response rating (soybean (Glycine max); Rate 125 g/ha, Postemergence) | Plant response rating, Soybean (soybean (Glycine max); [20]) | Plant response rating, Blackgrass [4, 20] | Wild oats plant response rating (wild oat (Avena fatua); Rate 125 g/ha, Postemergence) | Plant response rating, B. signalgrass ([5]; Rate 62 g/ha, Postemergence) | Plant response rating, B. signalgrass ([5]; Rate 125 g/ha, Postemergence) | Plant response rating, B. signalgrass ([5]; Rate 250 g/ha, Postemergence) | Plant response rating, Morningglory ([6]; Rate 62 g/ha, Postemergence) | Giant foxtail plant response rating ([7]; Rate 125 g/ha, Postemergence) | Plant response rating, Giant foxtail ([7]; Rate 250 g/ha, Postemergence) | Plant response rating, Crabgrass ([8]; Rate 125 g/ha, Postemergence) | Plant response rating, Crabgrass ([8]; Rate 250 g/ha, Postemergence) | Plant response rating, Cocklebur ([9]; Rate 62 g/ha, Postemergence) | Plant response rating, Velvetleaf ([10]; Rate 62 g/ha, Postemergence) | Velvetleaf plant response rating ([10]; Rate 125 g/ha, Postemergence) | Plant response rating, Velvetleaf ([10]; Rate 250 g/ha, Postemergence) | Plant response rating, Velvetleaf [10, 20] | Wheat plant response rating ([11]; Rate 125 g/ha, Postemergence) | Plant response rating, Rape (rape (Brassica napus); [20]) | Plant response rating, Corn (corn (Zea mays); Rate 62 g/ha, Postemergence) | Plant response rating, Corn (corn (Zea mays); Rate 125 g/ha, Postemergence) | Plant response rating, Corn (corn (Zea mays); Rate 250 g/ha, Postemergence)
